The target in experiment [1] is T1, 5-hydroxytryptamine receptor 1A (Rattus norvegicus, UniProt P19327).
T1 sequence (P19327 whole entry): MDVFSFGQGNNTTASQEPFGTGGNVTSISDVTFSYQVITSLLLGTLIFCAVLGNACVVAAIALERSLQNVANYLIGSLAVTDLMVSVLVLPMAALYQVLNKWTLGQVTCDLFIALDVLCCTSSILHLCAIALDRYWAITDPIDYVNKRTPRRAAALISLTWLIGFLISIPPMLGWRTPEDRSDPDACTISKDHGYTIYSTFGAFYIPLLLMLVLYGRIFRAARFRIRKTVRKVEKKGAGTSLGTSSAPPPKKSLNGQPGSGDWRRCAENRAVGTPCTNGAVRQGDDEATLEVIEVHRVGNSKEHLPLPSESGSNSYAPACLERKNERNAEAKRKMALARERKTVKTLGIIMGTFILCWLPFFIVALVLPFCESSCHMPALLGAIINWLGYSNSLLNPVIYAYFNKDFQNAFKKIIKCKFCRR
In words: Binding affinity against 5-hydroxytryptamine 1A receptor of rat hippocampus using [3H]8-OH-DPAT. The format is tissue-based.

In experiment [2] the target is D(2) dopamine receptor (Rattus norvegicus, UniProt P61169). In words: Binding affinity against D2 receptor in rat striatum using [3H]raclopride. The class given is tissue-based.
The target of experiment [3] is T2, 5-hydroxytryptamine receptor 2C (Rattus norvegicus, UniProt P08909).
T2 sequence (P08909 whole entry): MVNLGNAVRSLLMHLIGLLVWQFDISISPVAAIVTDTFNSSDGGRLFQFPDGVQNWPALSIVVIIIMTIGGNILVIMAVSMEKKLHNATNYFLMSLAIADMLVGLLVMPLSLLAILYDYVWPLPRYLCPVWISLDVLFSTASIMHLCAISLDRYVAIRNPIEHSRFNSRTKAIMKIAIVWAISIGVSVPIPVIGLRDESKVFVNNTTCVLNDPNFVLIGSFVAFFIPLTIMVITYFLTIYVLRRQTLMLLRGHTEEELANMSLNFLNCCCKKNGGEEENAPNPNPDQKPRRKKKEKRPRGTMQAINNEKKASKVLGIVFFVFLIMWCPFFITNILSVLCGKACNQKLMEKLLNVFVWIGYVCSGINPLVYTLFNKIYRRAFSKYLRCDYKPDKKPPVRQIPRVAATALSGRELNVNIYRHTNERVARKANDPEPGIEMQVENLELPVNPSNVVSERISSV
Put plainly: Binding affinity against 5-hydroxytryptamine 2C receptor in rat choroid plexus using [3H]N-methyl-mesulergine.

For experiment [4], the target named is T3, Adrenergic receptor alpha-1 (Rattus norvegicus, UniProt P15823+P23944+P43140).
T3 sequence (P15823 whole entry): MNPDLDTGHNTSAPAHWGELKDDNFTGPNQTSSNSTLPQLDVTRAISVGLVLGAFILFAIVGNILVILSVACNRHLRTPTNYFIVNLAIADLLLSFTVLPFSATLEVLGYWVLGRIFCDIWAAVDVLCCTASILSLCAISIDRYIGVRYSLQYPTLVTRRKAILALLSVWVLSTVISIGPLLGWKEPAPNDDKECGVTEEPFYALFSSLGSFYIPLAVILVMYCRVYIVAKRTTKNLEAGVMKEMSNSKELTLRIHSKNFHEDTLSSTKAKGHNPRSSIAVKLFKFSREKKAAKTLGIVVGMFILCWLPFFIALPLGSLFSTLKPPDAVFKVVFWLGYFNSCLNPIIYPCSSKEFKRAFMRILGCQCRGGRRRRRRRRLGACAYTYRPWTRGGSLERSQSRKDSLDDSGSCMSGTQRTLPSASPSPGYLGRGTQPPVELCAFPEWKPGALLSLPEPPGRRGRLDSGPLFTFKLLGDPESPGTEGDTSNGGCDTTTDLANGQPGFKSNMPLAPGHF
T3 sequence (P23944 whole entry): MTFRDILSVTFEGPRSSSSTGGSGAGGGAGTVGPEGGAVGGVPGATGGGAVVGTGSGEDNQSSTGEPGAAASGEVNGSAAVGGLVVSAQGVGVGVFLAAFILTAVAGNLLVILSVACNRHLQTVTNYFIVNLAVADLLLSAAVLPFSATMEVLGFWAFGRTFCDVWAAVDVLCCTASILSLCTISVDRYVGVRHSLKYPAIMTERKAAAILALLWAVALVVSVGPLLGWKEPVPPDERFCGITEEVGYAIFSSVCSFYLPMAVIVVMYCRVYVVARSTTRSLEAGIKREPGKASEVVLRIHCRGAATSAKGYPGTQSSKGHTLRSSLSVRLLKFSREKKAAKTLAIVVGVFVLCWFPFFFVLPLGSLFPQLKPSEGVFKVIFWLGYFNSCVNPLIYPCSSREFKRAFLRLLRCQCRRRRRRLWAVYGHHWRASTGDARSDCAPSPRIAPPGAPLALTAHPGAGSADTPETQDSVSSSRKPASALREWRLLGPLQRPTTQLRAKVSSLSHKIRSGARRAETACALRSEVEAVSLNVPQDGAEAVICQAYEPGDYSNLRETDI
T3 sequence (P43140 whole entry): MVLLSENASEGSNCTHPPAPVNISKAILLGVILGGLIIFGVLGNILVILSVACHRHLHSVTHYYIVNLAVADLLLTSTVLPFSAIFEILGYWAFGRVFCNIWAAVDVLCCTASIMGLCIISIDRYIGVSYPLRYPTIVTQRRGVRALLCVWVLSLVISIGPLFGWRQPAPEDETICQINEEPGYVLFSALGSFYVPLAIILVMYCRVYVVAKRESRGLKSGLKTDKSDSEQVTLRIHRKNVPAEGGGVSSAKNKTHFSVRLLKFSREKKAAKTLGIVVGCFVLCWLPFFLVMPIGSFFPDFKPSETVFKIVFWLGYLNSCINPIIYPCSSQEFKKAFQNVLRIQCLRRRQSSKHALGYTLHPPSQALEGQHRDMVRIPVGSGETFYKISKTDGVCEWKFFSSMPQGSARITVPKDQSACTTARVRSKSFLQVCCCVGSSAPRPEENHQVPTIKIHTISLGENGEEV
In words: Binding affinity against Alpha-1 adrenergic receptor in rat cortex using [3H]prazosin. The format is tissue-based, Brain.

For experiment [5], the target named is 5-hydroxytryptamine receptor 2A (Rattus norvegicus, UniProt P14842). Put plainly: Binding affinity for 5-hydroxytryptamine 2A receptor in rat cortex using [3H]ketanserin. The class given is tissue-based.
Experiment [6] relates to Mus musculus. Put plainly: 5-HT2 antagonist activity was assessed by the ability of compound to antagonise 5-HTP induced head twitches at 45 mg/Kg administered perorally in mice. The format is functional. To be noted: po.
Experiment [7] deals with Mus musculus. In words: 5-HT2 antagonist activity was assessed by the ability of compound to antagonise 5-HTP induced head twitches at 128 mg/Kg administered perorally in mice. The class given is functional. To be noted: po.
Experiment [8] relates to Mus musculus. Put plainly: 5-HT2 antagonist activity was assessed by the ability of compound to antagonise mescaline induced scratching at 32 mg/Kg administered perorally in mice. The class given is functional. To be noted: po.
The test system of experiment [9] is Mus musculus. In words: 5-HT2 antagonist activity was assessed by the ability of compound to antagonise mescaline induced scratching at 8 mg/Kg administered perorally in mice. The class given is functional. To be noted: po.
Experiment [10] deals with Mus musculus. In words: 5-HT2 antagonist activity was assessed by the ability of compound to antagonise 5-HTP induced head twitches at 4 mg/Kg administered intraperitoneally in mice; Inactive. The class given is functional, organism-based.
The subject of experiment [11] is Mus musculus. In words: 5-HT2 antagonist activity was assessed by the ability of compound to antagonise mescaline induced scratching at 16 mg/Kg administered intraperitoneally in mice; Inactive. The class given is functional, organism-based.
In experiment [12] the test system is Mus musculus. Put plainly: Compound was tested for sedative activity in mice at the dose of 4 mg/kg perorally; active. The format is functional, organism-based. More on the design: dose 4 mg/kg.

Molecules are shown by their SMILES. Activity calls are given as the source filed them. The calls are words filed in the database; no cut-off is given here.

Chain of 5-hydroxytryptamine receptor 2A (P14842 whole entry): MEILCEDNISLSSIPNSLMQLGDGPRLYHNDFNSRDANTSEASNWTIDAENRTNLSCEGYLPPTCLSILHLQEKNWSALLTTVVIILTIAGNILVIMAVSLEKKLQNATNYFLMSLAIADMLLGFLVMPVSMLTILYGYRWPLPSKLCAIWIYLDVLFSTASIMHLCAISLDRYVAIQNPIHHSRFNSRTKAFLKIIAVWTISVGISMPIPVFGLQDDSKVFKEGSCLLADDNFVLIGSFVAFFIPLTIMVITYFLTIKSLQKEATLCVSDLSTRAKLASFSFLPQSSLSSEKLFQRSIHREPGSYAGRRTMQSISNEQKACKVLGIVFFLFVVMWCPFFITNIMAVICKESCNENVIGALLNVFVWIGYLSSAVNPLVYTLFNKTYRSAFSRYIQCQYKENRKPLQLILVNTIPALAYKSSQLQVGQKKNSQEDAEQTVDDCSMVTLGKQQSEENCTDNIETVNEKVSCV
Chain of D(2) dopamine receptor (P61169 whole entry): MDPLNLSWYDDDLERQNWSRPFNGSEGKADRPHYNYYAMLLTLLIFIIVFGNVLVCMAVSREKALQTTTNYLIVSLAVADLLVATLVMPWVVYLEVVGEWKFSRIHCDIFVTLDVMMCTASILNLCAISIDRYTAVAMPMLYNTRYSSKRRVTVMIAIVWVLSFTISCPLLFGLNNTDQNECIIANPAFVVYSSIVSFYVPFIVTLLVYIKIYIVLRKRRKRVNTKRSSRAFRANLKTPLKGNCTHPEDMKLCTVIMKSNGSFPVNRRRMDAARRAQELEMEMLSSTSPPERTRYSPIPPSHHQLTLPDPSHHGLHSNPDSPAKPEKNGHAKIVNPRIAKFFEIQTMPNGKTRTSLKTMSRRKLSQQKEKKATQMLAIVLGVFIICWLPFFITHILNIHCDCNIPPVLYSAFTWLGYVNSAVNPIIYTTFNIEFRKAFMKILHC

For `COc1ccccc1N1CCN(CCCCc2ccc3c(c2)oc(=O)n3CCN2CCC(=C(c3ccc(F)cc3)c3ccc(F)cc3)CC2)CC1`, the Ki (in general, the equilibrium dissociation constant of an inhibitor or competing ligand from its target) in experiment [1] is 98 nM; in [2], 3 nM; in experiment [3] it was 460 nM; in experiment [4] it was 5 nM; in [5], 335 nM.
For `COc1ccccc1N1CCN(CCCCc2ccc3c(c2)OCC(=O)N3CCN2CCC(=C(c3ccc(F)cc3)c3ccc(F)cc3)CC2)CC1`, the Ki is 49 nM in [1]; 1.4 nM in [2]; 250 nM in experiment [3]; 13 nM in experiment [4]; 120 nM in [5].
Consider `O=C(c1ccc(F)cc1)C1CCN(CCn2c(=O)sc3cc(CCCCN4CCN(c5cccc(C(F)(F)F)c5)CC4)ccc32)CC1`, for which the Ki is 70 nM in experiment [1]; 30 nM in [2]; more than 10000 nM in [3]; 1000 nM in experiment [4]; 50 nM in experiment [5].
On the same counts, the results for `COc1ccccc1N1CCN(CCCCc2ccc3c(c2)OCC(=O)N3CCN2CCC(C(=O)c3ccc(F)cc3)CC2)CC1` are 18 nM, 0.06 nM, 30 nM, 2 nM and 14 nM.
Consider `COc1ccccc1N1CCN(CCCCc2ccc3c(c2)oc(=O)n3CCN2CCC(C(=O)c3ccc(F)cc3)CC2)CC1`, for which the Ki in experiment [1] is 2 nM; in experiment [2] it was 0.5 nM; in [3], 75 nM; in experiment [5], 16 nM.
Consider `COc1ccccc1N1CCN(CCCCc2ccc3c(c2)sc(=O)n3CCN2CCC(C(=O)c3ccc(F)cc3)CC2)CC1`, for which, in experiment [6], at 45 mg/kg the inhibition in vivo was 50%. Also, testing at 128 mg/kg in [7] gave an inhibition in vivo of 90%. The Ki in experiment [1] stood at 7 nM; in experiment [2], 1.2 nM; in [3], 240 nM; in experiment [4], 5 nM; in experiment [5], 2 nM. In addition, the inhibition in vivo (usually how much of the control response was suppressed) at 32 mg/kg in experiment [8] worked out at 70%. For the same molecule, testing at 8 mg/kg in experiment [9] gave an inhibition in vivo of 86%.
In the case of `COc1ccccc1N1CCN(CCCc2ccc3c(c2)sc(=O)n3CCN2CCC(C(=O)c3ccc(F)cc3)CC2)CC1`, the Ki in [1] was 3 nM; in experiment [2], 2 nM; in experiment [3], 70 nM; in experiment [5] it was 2 nM.
For `COc1ccccc1N1CCN(CCCCc2ccc3c(c2)sc(=O)n3CCN2CCC(=C(c3ccc(F)cc3)c3ccc(F)cc3)CC2)CC1`, the Ki in [1] is 5 nM; in experiment [2], 5 nM; in experiment [3], 110 nM; in experiment [4], 5 nM; in experiment [5], 7 nM.
With `COc1ccccc1N1CCN(CCc2ccc3c(c2)sc(=O)n3CCN2CCC(C(=O)c3ccc(F)cc3)CC2)CC1`, the Ki in experiment [1] was determined as 6000 nM; in experiment [2], 5 nM; in experiment [3], 50 nM; in experiment [4], 1 nM; in experiment [5], 20 nM.
Turning to `O=C(c1ccc(F)cc1)C1CCN(CCn2c(=O)sc3cc(CCCCN4CCOCC4)ccc32)CC1`, the outcome in experiment [10] and in [11] was inactive. Besides, the Ki was 700 nM in [1]; 100 nM in experiment [2]; 20 nM in [3]; 40 nM in [4]; 0.6 nM in experiment [5]. The outcome in [12] was Active.

(Values after ChEMBL document CHEMBL1130574, “5-HT1A and 5-HT2A ligands with anxiolytic and antipanic-like properties” (Bioorg Med Chem Lett, 1997).)
